Non-standard residues stand in square brackets, D forms with d. Residues, ends and D or L forms follow the SMILES beside them.
Legend:
[1] = not given; remark: listed apart in the source
[2] = not given; remark: listed apart in the source
[3] = not given; remark: listed apart in the source

Row | Molecule | Mean size (nm) at 0 h, Nb (%) [nm] | Blue shift of tryptophan fluorescence with excess liposomes [1] [nm] | Tryptophan fluorescence emission maximum, free peptide [2] [nm] | Tryptophan fluorescence emission maximum with siRNA [3] [nm]
1 | CC(C)C[C@@H](NC(=O)CN)C(=O)N[C@H](Cc1c[nH]c2ccccc12)C(=O)N[C@H](CCCNC(=N)N)C(=O)N[C@H](C)C(=O)N[C@H](CC(C)C)C(=O)N[C@H](Cc1c[nH]c2ccccc12)C(=O)N[C@H](CCCNC(=N)N)C(=O)N[C@H](CC(C)C)C(=O)N[C@H](CC(C)C)C(=O)N[C@H](CCCNC(=N)N)C(=O)N[C@H](CO)C(=O)N[C@H](CC(C)C)C(=O)N[C@H](Cc1c[nH]c2ccccc12)C(=O)N[C@H](CCCNC(=N)N)C(=O)N[C@H](CC(C)C)C(=O)N[C@H](CC(C)C)C(=O)N[C@H](Cc1c[nH]c2ccccc12)C(=O)N[C@H](CCCCN)C(=O)O (H-G[dL][dW][dR][dA][dL][dW][dR][dL][dL][dR][dS][dL][dW][dR][dL][dL][dW][dK]-OH) | 30 | – | – | –
2 | CC(C)C[C@@H](NC(=O)[C@@H](Cc1c[nH]c2ccccc12)NC(=O)[C@@H](CCCNC(=N)N)NC(=O)[C@@H](C)NC(=O)[C@@H](CC(C)C)NC(=O)[C@@H](Cc1c[nH]c2ccccc12)NC(=O)[C@@H](CCCNC(=N)N)NC(=O)[C@@H](CC(C)C)NC(=O)[C@@H](CC(C)C)NC(=O)[C@@H](CCCNC(=N)N)NC(=O)[C@@H](CO)NC(=O)[C@@H](CC(C)C)NC(=O)[C@@H](Cc1c[nH]c2ccccc12)NC(=O)[C@@H](CCCNC(=N)N)NC(=O)[C@@H](CC(C)C)NC(=O)[C@@H](CC(C)C)NC(=O)[C@@H](Cc1c[nH]c2ccccc12)NC(=O)[C@H](N)CCCCN)C(=O)NCC(=O)O (H-[dK][dW][dL][dL][dR][dW][dL][dS][dR][dL][dL][dR][dW][dL][dA][dR][dW][dL]G-OH) | – | 10 | 345 | 340
3 | H-GLWRALWRLLRSLWRLLWK-OH | – | – | 348 | 340

From article PMC5410048, “A retro-inverso cell-penetrating peptide for siRNA delivery” (Journal of Nanobiotechnology, 2017)
